# Test results reported in ChEMBL document CHEMBL5620374, “Synthesis and bioevaluation of novel stilbene-based derivatives as tubulin/HDAC dual-target inhibitors with potent antitumor activities in vitro and in vivo” (Eur J Med Chem, 2023).
# Activity calls are given as the source filed them. The rule behind the calls is not given here.
# What was measured:
# [1] = tested on: H22; assay: Antitumor activity against mouse H22 cells allografted in ICR mouse assessed as tumor growth inhibition at 20 mg/kg, iv qd for 17 days consecutively relative to control; assay type: functional; settings: time 17 day, read-out: TGI
# [2] = tested on: K562; assay: Inhibition of mitochondrial membrane potential in human K562 cells assessed as green fluorescence intensity at 4 nM incubated for 48 hrs by JC-1 staining based flow cytometry (reference value: 6.63 +/- 0.27 %); assay type: functional
# [3] = tested on: K562; assay: Induction of apoptosis in human K562 cells assessed as early apoptotic cells at 4 nM incubated for 48 hrs by Annexin V/PI staining based flow cytometry (reference value: 1.55 +/- 0.21 %); assay type: functional
# [4] = tested on: HUVEC; assay: Inhibition of tube formation in HUVEC cells incubated for 24 hrs by inverted microscopy; assay type: functional, cell-based; settings: Homo sapiens
# [5] = tested on: K562; assay: Induction of cell cycle arrest at S phase in human K562 cells at 8 nM incubated for 48 hrs by PI staining based flow cytometry (reference value: 22.56 +/- 0.47 %); assay type: functional
# [6] = tested on: K562; assay: Induction of ROS generation in human K562 cells assessed as DCF-positive cells at 2 nM incubated for 48 hrs by DCF-DA probe based flow cytometry (reference value: 3.87 %); assay type: functional
# [7] = tested on: H22; assay: Antiproliferative activity against mouse H22 cells incubated for 72 hrs by MTT assay; assay type: functional, cell-based; settings: H22, 72 h
# [8] = tested on: K562; assay: Effect on cell cycle in human K562 cells assessed as decrease in Cdc25c level incubated for 24 hrs by Western blot analysis; assay type: functional, cell-based; settings: dose 2-8 nM
# [9] = tested on: MDA-MB-231; assay: Inhibition of cell […] in human MDA-MB-231 cells incubated for 24 hrs by wound healing assay; assay type: functional, cell-based; settings: dose 2-8 nM
# [10] = Toxicity in ICR mouse allografted with mouse H22 cells assessed as toxic sign in liver at 10 to 20 mg/kg, iv qd for 17 days consecutively by H and E staining based analysis; assay type: organism-based; settings: in vivo, dose 10-20 mg/kg, time 17 day
# [11] = tested on: MDA-MB-231; assay: Inhibition of cell migration in human MDA-MB-231 cells incubated for 48 hrs by crystal violet staining based transwell assay; assay type: functional; settings: dose 2-8 nM
# [12] = tested on: K562; assay: Induction of apoptosis in human K562 cells assessed as nuclear fragmentation at 2 to 8 nM incubated for 48 hrs by Hoechst 33342 staining based analysis; assay type: functional, cell-based; settings: dose 2-8 nM
# [13] = tested on: K562; assay: Induction of cell cycle arrest at G1 phase in human K562 cells at 4 nM incubated for 48 hrs by PI staining based flow cytometry (reference value: 62.08 +/- 0.40 %); assay type: functional
# [14] = tested on: K562; assay: Induction of apoptosis in human K562 cells assessed as late apoptotic cells at 8 nM incubated for 48 hrs by Annexin V/PI staining based flow cytometry (reference value: 3.37 +/- 0.21 %); assay type: functional
# [15] = tested on: K562; assay: Inhibition of mitochondrial membrane potential in human K562 cells assessed as green fluorescence intensity at 2 nM incubated for 48 hrs by JC-1 staining based flow cytometry (reference value: 6.63 +/- 0.27 %); assay type: functional
# [16] = Toxicity in ICR mouse allografted with mouse H22 cells assessed as toxic sign in lung at 10 to 20 mg/kg, iv qd for 17 days consecutively by H and E staining based analysis; assay type: organism-based; settings: in vivo, dose 10-20 mg/kg, time 17 day
# [17] = tested on: K562; assay: Effect on cell cycle in human K562 cells assessed as decrease in cyclin B1 level incubated for 24 hrs by Western blot analysis; assay type: functional, cell-based; settings: dose 2-8 nM
# [18] = tested on: K562; assay: Inhibition of mitochondrial membrane potential in human K562 cells assessed as red fluorescence intensity at 8 nM incubated for 48 hrs by JC-1 staining based flow cytometry (reference value: 93.36 +/- 0.21 %); assay type: functional
# [19] = tested on: K562; assay: Induction of cell cycle arrest at S phase in human K562 cells at 4 nM incubated for 48 hrs by PI staining based flow cytometry (reference value: 22.56 +/- 0.47 %); assay type: functional
# [20] = tested on: K562; assay: Inhibition of mitochondrial membrane potential in human K562 cells assessed as red fluorescence intensity at 4 nM incubated for 48 hrs by JC-1 staining based flow cytometry (reference value: 93.36 +/- 0.21 %); assay type: functional
# [21] = tested on: K562; assay: Induction of apoptosis in human K562 cells assessed as necrotic cells at 4 nM incubated for 48 hrs by Annexin V/PI staining based flow cytometry (reference value: 2.56 +/- 0.22 %); assay type: functional
# [22] = tested on: K562; assay: Induction of apoptosis in human K562 cells assessed as increase in Bad level incubated for 24 hrs by Western blot analysis; assay type: functional, cell-based; settings: dose 2-8 nM
# [23] = tested on: K562; assay: Induction of apoptosis in human K562 cells assessed as necrotic cells at 8 nM incubated for 48 hrs by Annexin V/PI staining based flow cytometry (reference value: 2.56 +/- 0.22 %); assay type: functional
# [24] = Toxicity in ICR mouse allografted with mouse H22 cells assessed as toxic sign in kidney at 10 to 20 mg/kg, iv qd for 17 days consecutively by H and E staining based analysis; assay type: organism-based; settings: in vivo, dose 10-20 mg/kg, time 17 day
# [25] = tested on: H22; assay: Antitumor activity against mouse H22 cells allografted in ICR mouse assessed as tumor growth inhibition at 10 mg/kg, iv qd for 17 days consecutively relative to control; assay type: functional; settings: time 17 day, read-out: TGI
# [26] = tested on: K562; assay: Induction of ROS generation in human K562 cells assessed as DCF-positive cells at 8 nM incubated for 48 hrs by DCF-DA probe based flow cytometry (reference value: 3.87 %); assay type: functional
# [27] = tested on: K562; assay: Antiproliferative activity against human K562 cells incubated for 72 hrs by MTT assay; assay type: functional, cell-based; settings: K562, 72 h
# [28] = tested on: K562; assay: Induction of apoptosis in human K562 cells assessed as late apoptotic cells at 2 nM incubated for 48 hrs by Annexin V/PI staining based flow cytometry (reference value: 3.37 +/- 0.21 %); assay type: functional
# [29] = tested on: K562; assay: Induction of apoptosis in human K562 cells assessed as viable cells at 2 nM incubated for 48 hrs by Annexin V/PI staining based flow cytometry (reference value: 92.52 +/- 0.34 %); assay type: functional; settings: read-out: Activity
# [30] = tested on: K562; assay: Induction of apoptosis in human K562 cells assessed as chromatin aggregation at 2 to 8 nM incubated for 48 hrs by Hoechst 33342 staining based analysis; assay type: functional, cell-based; settings: dose 2-8 nM
# [31] = molecular target: Tubulin (Homo sapiens) (UniProt P68371+Q9H4B7+P0DPH7+P68366+Q13509+Q71U36+P04350+Q3ZCM7+P07437+P68363+Q9BQE3+Q6PEY2+Q13885+Q9BVA1+Q9BUF5); assay: Inhibition of tubulin polymerization in human K562 cells assessed as disruption of microtubule network at 2 to 8 nM by immunofluorescence based analysis; assay type: cell-based; settings: dose 2-8 nM
smiles,measurement,setting,value
C=C(c1ccc(OC)c(OC(F)C(=O)NO)c1)c1cc(C)nc2ccccc12 (stereo unspecified),inhibition in vivo at 20 mg/kg,[1],73.1%
same,Flu intensity,[2],31.75%
same,Activity,[3],24.51%
same,IC50,[4],192 nM
same,Activity,[5],30.41%
same,Activity,[6],16.44%
same,IC50,[7],8 nM
same,Activity,[8],Dose-Dependent Effect
same,inhibition,[9],Dose-Dependent Effect
same,Activity,[10],Non-Toxic
same,inhibition,[11],Dose-Dependent Effect
same,Activity,[12],Active
same,Activity,[13],49.35%
same,Activity,[14],25.59%
same,Flu intensity,[15],17.63%
same,Activity,[16],Non-Toxic
same,Activity,[17],Dose-Dependent Effect
same,Flu intensity,[18],57.69%
same,Activity,[19],26.6%
same,Flu intensity,[20],68.24%
same,Activity,[21],0.17%
same,Activity,[22],Dose-Dependent Effect
same,Activity,[23],3.7%
same,Activity,[24],Non-Toxic
same,inhibition in vivo at 10 mg/kg,[25],48%
same,Activity,[26],42.67%
same,IC50,[27],3 nM
same,Activity,[28],3.94%
same,viability at 0.002 µM,[29],81.2%
same,Activity,[30],Active
same,inhibition,[31],Active
